Test [1] relates to blood-brain barrier of MCAO mice. As to the kind of experiment: BBB permeability assay, 14C-sucrose influx in mice. To be noted: for BBB permeability (14C-sucrose), relative to Sham = 100: C/EBP-α experiment, MCAO 272.1%, Fig. 5B; for 14C-sucrose influx rate (Ki), right cerebral hemisphere: n = 6, mean ± SD. Type of test: in vivo, mouse. An excerpt:
To evaluate the therapeutic function of TZP against IS, four groups were divided: Sham, TZP, MCAO, and MCAO + TZP groups. In the Sham and MCAO groups, normal saline was intraperitoneally administered to sham-operated and MCAO-operated wide-type (WT) mice once a week for 8 weeks, respectively. In the TZP and MCAO + TZP groups, sham-operated and MCAO-operated WT mice were intraperitoneally administered with 10 nmol/kg TZP once a week for 8 weeks, respectively. To confirm the involvement of C/EBPα in the function of TZP, four groups were divided: Sham, MCAO, MCAO + TZP, and MCAO + C/EBP-α-/- + TZP. Administrations in the Sham, MCAO, and MCAO + TZP groups were described above. MCAO-operated C/EBP-α-/- mice in the MCAO + C/EBP-α-/- + TZP group received an intraperitoneal injection of 10 nmol/kg TZP every week for eight weeks. ^14C-sucrose (1 µCi, i.v.) was administered, and brain uptake was measured after 10 min. The influx rate (Ki, µL/g/min) was calculated as [^14C-sucrose]brain (dpm/g)/[^14C-sucrose]plasma (dpm/mL) × time (min).

A further test relates to HBMVECs. The test can be described thus: TEER of OGD/R-challenged HBMVECs. Type of test: cell-based, human. As for the experimental part:
HBMVECs were sourced from ATCC (USA). These cells were cultivated in a medium specifically designed for endothelial cultures, enriched with 10% FBS, and maintained in an incubator set at a temperature of 37 °C with 5% CO2. For OGD/R modeling, the culture medium was replaced with a serum-free, glucose-free medium, and then it was placed in a hypoxic environment (1% O2, 5% CO2, 94% N2) at a 37 °C incubator for 10 h. After 10 h, the normal medium containing serum was added, and the normal oxygen supply was restored. The cells were then kept in a 37 °C constant temperature incubator for 24 h of reoxygenation. To silence C/EBP-α, HBMVECs were transduced with adenovirus harboring a short hairpin RNA (shRNA) specifically designed to knock down C/EBP-α (Ad-viral sh-C/EBP-α) for 48 h. Approximately 100,000 cells were nurtured in the upper section of the Transwell device. Once the cells had bonded to the container surfaces, TEER values across each group were determined utilizing an impedance meter (Millipore, United States) after 24 h.

SMILES strings stand for the structures.

Regarding `CC[C@H](C)[C@H](NC(=O)[C@H](CC(C)C)NC(=O)[C@H](Cc1c[nH]c2ccccc12)NC(=O)[C@H](CCC(N)=O)NC(=O)[C@@H](NC(=O)[C@H](Cc1ccccc1)NC(=O)[C@H](C)NC(=O)[C@H](CCCCNC(=O)COCCOCCNC(=O)COCCOCCNC(=O)CC[C@H](NC(=O)CCCCCCCCCCCCCCCCCCC(=O)O)C(=O)O)NC(=O)[C@H](CCC(N)=O)NC(=O)[C@H](C)NC(=O)[C@@H](NC(=O)[C@H](CCCCN)NC(=O)[C@H](CC(=O)O)NC(=O)[C@H](CC(C)C)NC(=O)C(C)(C)NC(=O)[C@@H](NC(=O)[C@H](CO)NC(=O)[C@H](Cc1ccc(O)cc1)NC(=O)[C@H](CC(=O)O)NC(=O)[C@H](CO)NC(=O)[C@@H](NC(=O)[C@H](Cc1ccccc1)NC(=O)[C@@H](NC(=O)CNC(=O)[C@H](CCC(=O)O)NC(=O)C(C)(C)NC(=O)[C@@H](N)Cc1ccc(O)cc1)[C@@H](C)O)[C@@H](C)O)[C@@H](C)CC)[C@@H](C)CC)C(C)C)C(=O)N[C@@H](C)C(=O)NCC(=O)NCC(=O)N1CCC[C@H]1C(=O)N[C@@H](CO)C(=O)N[C@@H](CO)C(=O)NCC(=O)N[C@@H](C)C(=O)N1CCC[C@H]1C(=O)N1CCC[C@H]1C(=O)N1CCC[C@H]1C(=O)N[C@@H](CO)C(N)=O` [TZP, Tirzepatide], the “BBB permeability (14C-sucrose), relative to Sham = 100” value in test [1] (MCAO + TZP, WT mice) turned out to be 141.9%; in test [1] (TZP-treated MCAO C/EBP-α-/- mice), 205.7%. The “14C-sucrose influx rate (Ki), right cerebral hemisphere” value in test [1] (MCAO + TZP group (10 nmol/kg i.p. weekly, 8 weeks), MCAO 2.582 ± 0.156, P < 0.005 vs. MCAO) was 1.447 ± 0.103 µL/g/min; in test [1] (TZP group (sham-operated, 10 nmol/kg i.p. weekly, 8 weeks), Sham 1.00 ± 0.028, P = 0.89 vs. Sham), 0.995 ± 0.032 µL/g/min. Moreover, the TEER values in the test on HBMVECs (OGD/R + 50 nM TZP, 24 h, control 191.3, OGD/R 115.3, Fig. 6B) is 145.3 Ω.cm²; in the test on HBMVECs (OGD/R + 100 nM TZP, 24 h, control 191.3, OGD/R 115.3, Fig. 6B), 172.9 Ω.cm²; with HBMVECs (sh-C/EBP-α experiment, OGD/R + TZP (100 nM), control 187.4, OGD/R 113.5, Fig. 9C) it was 175.6 Ω.cm²; in the test with HBMVECs (sh-C/EBP-α experiment, OGD/R + sh-C/EBP-α + TZP (100 nM), control 187.4, OGD/R 113.5, Fig. 9C) it was 138.2 Ω.cm².
